Source: ChEMBL document CHEMBL3046383, “Enantioselective Herbicidal Activity of Chiral α-Methylbenzylphenylureas against Cyperaceae and Echinochloa Paddy Weeds” (Biosci Biotechnol Biochem, 1998)
Activity calls are given as the source filed them. How the calls were made is not given here.

Columns and labels:
Oryza sativa [1] = assay: Phytotoxicity against transplanted Oryza sativa (rice) seedlings assessed as phytotoxic activity ratings (0- no effect to 5-complete killing rating scale) at 100 g/a measured after 3 weeks post compound treatment under green house conditions; format: organism-based; details: in vivo, 504 h
Oryza sativa [2] = assay: Phytotoxicity against directly seeded Oryza sativa (rice) seedlings assessed as phytotoxic activity ratings (0- no effect to 5-complete killing rating scale) at 100 g/a measured after 3 weeks post compound treatment under green house conditions; format: organism-based; details: in vivo, 504 h
Echinochloa oryzicola [3] = assay: Herbicidal activity against Echinochloa oryzicola assessed as phytotoxic activity ratings (0- no effect to 5-complete killing rating scale) at 100 g/a measured after 3 weeks post compound treatment under green house conditions; format: functional
Cyperus serotinus [4] = assay: Herbicidal activity against Cyperus serotinus assessed as phytotoxic activity ratings (0- no effect to 5-complete killing rating scale) at 3.1 to 100 g/a measured after 3 weeks post compound treatment under green house conditions; format: functional
Cyperus difformis [5] = assay: Herbicidal activity against Cyperus difformis assessed as phytotoxic activity ratings (0- no effect to 5-complete killing rating scale) at 50 g/a measured after 3 weeks post compound treatment under green house conditions; format: functional
Cyperus serotinus [6] = assay: Herbicidal activity against Cyperus serotinus assessed as phytotoxic activity ratings (0- no effect to 5-complete killing rating scale) at 100 g/a measured after 3 weeks post compound treatment under green house conditions; format: functional
[7] = tested on: Schoenoplectiella juncoides; assay: Herbicidal activity against Schoenoplectiella juncoides var. Hotarui Ohwi assessed as phytotoxic activity ratings (0- no effect to 5-complete killing rating scale) at 50 g/a measured after 3 weeks post compound treatment under green house conditions; format: functional
Cyperus difformis [8] = assay: Herbicidal activity against Cyperus difformis assessed as phytotoxic activity ratings (0- no effect to 5-complete killing rating scale) at 100 g/a measured after 3 weeks post compound treatment under green house conditions; format: functional
Cyperus serotinus [9] = assay: Herbicidal activity against Cyperus serotinus assessed as phytotoxic activity ratings (0- no effect to 5-complete killing rating scale) at 3.1 g/a measured after 3 weeks post compound treatment under green house conditions; format: functional
[10] = tested on: Schoenoplectiella juncoides; assay: Herbicidal activity against Schoenoplectiella juncoides var. Hotarui Ohwi assessed as phytotoxic activity ratings (0- no effect to 5-complete killing rating scale) at 100 g/a measured after 3 weeks post compound treatment under green house conditions; format: functional
Cyperus difformis [11] = assay: Herbicidal activity against Cyperus difformis assessed as phytotoxic activity ratings (0- no effect to 5-complete killing rating scale) at 25 g/a measured after 3 weeks post compound treatment under green house conditions; format: functional
Cyperus difformis [12] = assay: Herbicidal activity against Cyperus difformis assessed as phytotoxic activity ratings (0- no effect to 5-complete killing rating scale) at 12.2 g/a measured after 3 weeks post compound treatment under green house conditions; format: functional
Cyperus serotinus [13] = assay: Herbicidal activity against Cyperus serotinus assessed as phytotoxic activity ratings (0- no effect to 5-complete killing rating scale) at 12.2 g/a measured after 3 weeks post compound treatment under green house conditions; format: functional
[14] = tested on: Schoenoplectiella juncoides; assay: Herbicidal activity against Schoenoplectiella juncoides var. Hotarui Ohwi assessed as phytotoxic activity ratings (0- no effect to 5-complete killing rating scale) at 6.2 g/a measured after 3 weeks post compound treatment under green house conditions; format: functional
Echinochloa oryzicola [15] = assay: Herbicidal activity against Echinochloa oryzicola assessed as phytotoxic activity ratings (0- no effect to 5-complete killing rating scale) at 6.2 g/a measured after 3 weeks post compound treatment under green house conditions; format: functional
Cyperus difformis [16] = assay: Herbicidal activity against Cyperus difformis assessed as phytotoxic activity ratings (0- no effect to 5-complete killing rating scale) at 6.2 g/a measured after 3 weeks post compound treatment under green house conditions; format: functional
Oryza sativa [17] = assay: Phytotoxicity against directly seeded Oryza sativa (rice) seedlings assessed as phytotoxic activity ratings (0- no effect to 5-complete killing rating scale) at 12.2 g/a measured after 3 weeks post compound treatment under green house conditions; format: organism-based; details: in vivo, 504 h
Echinochloa oryzicola [18] = assay: Herbicidal activity against Echinochloa oryzicola assessed as phytotoxic activity ratings (0- no effect to 5-complete killing rating scale) at 25 g/a measured after 3 weeks post compound treatment under green house conditions; format: functional
Cyperus serotinus [19] = assay: Herbicidal activity against Cyperus serotinus assessed as phytotoxic activity ratings (0- no effect to 5-complete killing rating scale) at 50 g/a measured after 3 weeks post compound treatment under green house conditions; format: functional
Echinochloa oryzicola [20] = assay: Herbicidal activity against Echinochloa oryzicola assessed as phytotoxic activity ratings (0- no effect to 5-complete killing rating scale) at 50 g/a measured after 3 weeks post compound treatment under green house conditions; format: functional
[21] = tested on: Schoenoplectiella juncoides; assay: Herbicidal activity against Schoenoplectiella juncoides var. Hotarui Ohwi assessed as phytotoxic activity ratings (0- no effect to 5-complete killing rating scale) at 3.1 g/a measured after 3 weeks post compound treatment under green house conditions; format: functional
[22] = tested on: Schoenoplectiella juncoides; assay: Herbicidal activity against Schoenoplectiella juncoides var. Hotarui Ohwi assessed as phytotoxic activity ratings (0- no effect to 5-complete killing rating scale) at 12.2 g/a measured after 3 weeks post compound treatment under green house conditions; format: functional
Oryza sativa [23] = assay: Phytotoxicity against directly seeded Oryza sativa (rice) seedlings assessed as phytotoxic activity ratings (0- no effect to 5-complete killing rating scale) at 6.2 g/a measured after 3 weeks post compound treatment under green house conditions; format: organism-based; details: in vivo, 504 h

Compound: CC(C)c1cccc(NC(=O)N[C@@H](C)c2ccccc2)c1
- Activity (Oryza sativa [1]): 0%
- Activity (Oryza sativa [2]): 0%
- Activity (Echinochloa oryzicola [3]): 0%
- Activity (Cyperus serotinus [4]): 80%
- Activity (Cyperus difformis [5]): 80%
- Activity (Cyperus serotinus [6]): 10%

Compound: COc1cccc(NC(=O)N[C@H](C)c2ccccc2)c1
- Activity (Oryza sativa [1]): 0%
- Activity (Oryza sativa [2]): 10%
- Activity [7]: 80%
- Activity (Echinochloa oryzicola [3]): 10%
- Activity (Cyperus difformis [8]): 40%
- Activity (Cyperus serotinus [4]): 80%
- Activity (Cyperus serotinus [6]): 10%

Compound: CCc1ccccc1NC(=O)N[C@H](C)c1ccccc1
- Activity (Cyperus serotinus [9]): 80%
- Activity (Oryza sativa [1]): 0%
- Activity (Oryza sativa [2]): 0%
- Activity (Echinochloa oryzicola [3]): 0%
- Activity [10]: 10%
- Activity (Cyperus difformis [11]): 80%

Compound: CCc1cccc(NC(=O)N[C@H](C)c2ccccc2)c1
- Activity (Oryza sativa [1]): 0%
- Activity (Oryza sativa [2]): 0%
- Activity (Echinochloa oryzicola [3]): 40%
- Activity (Cyperus difformis [12]): 80%
- Activity [10]: 40%
- Activity (Cyperus serotinus [6]): 40%

Compound: CC(C)c1cccc(NC(=O)N[C@H](C)c2ccccc2)c1
- Activity (Oryza sativa [1]): 0%
- Activity (Oryza sativa [2]): 0%
- Activity (Echinochloa oryzicola [3]): 0%
- Activity [10]: 40%
- Activity (Cyperus difformis [11]): 80%
- Activity (Cyperus serotinus [13]): 80%

Compound: Cc1ccc(NC(=O)N[C@H](C)c2ccccc2)cc1
- Activity (Oryza sativa [1]): 0%
- Activity (Oryza sativa [2]): 0%
- Activity [7]: 80%
- Activity (Echinochloa oryzicola [3]): 10%
- Activity (Cyperus serotinus [6]): 40%
- Activity (Cyperus difformis [11]): 80%

Compound: CC(C)c1ccccc1NC(=O)N[C@H](C)c1ccccc1
- Activity (Cyperus serotinus [9]): 80%
- Activity (Oryza sativa [1]): 0%
- Activity [14]: 80%
- Activity (Echinochloa oryzicola [15]): 80%
- Activity (Cyperus difformis [16]): 80%
- Activity (Oryza sativa [17]): 80%

Compound: C[C@H](NC(=O)Nc1cc(F)ccc1F)c1ccccc1
- Activity (Oryza sativa [1]): 0%
- Activity (Oryza sativa [2]): 10%
- Activity (Cyperus difformis [8]): 0%
- Activity (Cyperus serotinus [4]): inactive
- Activity [10]: 0%
- Activity (Echinochloa oryzicola [18]): 80%

Compound: Cc1ccccc1NC(=O)N[C@H](C)c1ccccc1
- Activity (Oryza sativa [1]): 0%
- Activity (Oryza sativa [2]): 0%
- Activity (Cyperus serotinus [19]): 80%
- Activity (Echinochloa oryzicola [3]): 0%
- Activity (Cyperus difformis [8]): 10%

Compound: Cc1ccc(NC(=O)NC(C)(C)c2ccccc2)cc1 [DAIMURON]
- Activity (Oryza sativa [1]): 0%
- Activity (Oryza sativa [2]): 10%
- Activity (Echinochloa oryzicola [20]): 80%
- Activity [21]: 80%
- Activity (Cyperus difformis [16]): 80%

Compound: C[C@@H](NC(=O)Nc1ccccc1C(F)(F)F)c1ccccc1
- Activity (Cyperus serotinus [9]): 80%
- Activity (Oryza sativa [1]): 0%
- Activity (Oryza sativa [2]): 10%
- Activity (Echinochloa oryzicola [3]): 40%
- Activity [22]: 80%
- Activity (Cyperus difformis [12]): 80%

Compound: C[C@H](NC(=O)Nc1ccccc1)c1ccccc1
- Activity (Oryza sativa [1]): 0%
- Activity (Oryza sativa [2]): 10%
- Activity (Cyperus difformis [8]): 0%
- Activity [10]: 0%
- Activity (Cyperus serotinus [6]): 0%
- Activity (Echinochloa oryzicola [18]): 80%

Compound: C[C@H](NC(=O)Nc1cccc(F)c1F)c1ccccc1
- Activity (Oryza sativa [1]): 0%
- Activity (Oryza sativa [2]): 10%
- Activity (Cyperus difformis [8]): 0%
- Activity (Cyperus serotinus [4]): inactive
- Activity [10]: 0%
- Activity (Echinochloa oryzicola [18]): 80%

Compound: C[C@@H](NC(=O)Nc1ccccc1C(C)(C)C)c1ccccc1
- Activity (Cyperus serotinus [9]): 80%
- Activity (Oryza sativa [1]): 0%
- Activity [14]: 80%
- Activity (Echinochloa oryzicola [15]): 80%
- Activity (Cyperus difformis [16]): 80%
- Activity (Oryza sativa [23]): 80%
